Assay results published in patent publication US20090312413A1, “Composition Comprising Tanshinone Compounds Isolated From The Extract Of Salviae Miltiorrhizae Radix For Treating Or Preventing Cognitive Dysfunction And The Use Thereof” (DIGITAL BIOTECH CO., LTD., priority 2005, published 2009).

Key:
[1] = system: HT 22 mouse neuronal cell line; experiment: Inhibition test of beta amyloid toxicity (MTT); format: cell-based; details: HT22 cells, 25 μM aggregated beta amyloid, 18 hours
Method: HT 22 mouse neuronal cell line was incubated in DMEM (Dulbecco's Modified Eagle's Medium, Gibco-BRL) medium supplemented with 10% FBS (Fetal Bovine Serum, Hyclone) and 1% penicillin/streptomycin (Sigma Co.) Prior to test, HT22 cell was incubated on 96 well plates with a density of 5×10^3 cell/well and further incubated in serum free DMEM medium for 1 hour before the treatment of test sample. Various concentration of diethyl ether extract prepared in Example 1 used as a test sample was added thereto and incubated for 1 hour. Aggregated beta amyloid (US peptide) was treated thereto to the concentration of 25 μM and incubated for 18 hours to induce cell necrosis. 5 mg/ml of MTT (3-(4,5-dimethyl-2-thiazolyl)-2,5-diphenyl-2H-tetrazolium bromide) solution was added each well with 15 μl/well and the well was incubated for 4 hours. Dissolving buffer solution (10% SDS, 50% dimethyl formamide, pH 4.7) was added to each well with 100 μl/well and reacted for overnight. 18 hours after the reaction, the absorbance of solution was determined by microplate reader (SAFIRE, TECAN) at 570 nm/630 nm wavelength (Gillardon, F. et al., Brain Research, 706(1) pp 169-172, 1996).

[2] = Oral administration toxicity test; format: in vivo; details: 2000 mg/kg
[3] = system: mice directly treated with beta amyloid; experiment: AD acute model, Y maze test; format: in vivo, mouse; details: 50 mg/kg oral, mice given beta amyloid intracerebro-ventricularly
Method: For passive avoidance test, male ICR mouse weighing 25 g purchased from Samtaco Co. was bred with five mice per cage and the cage was kept with following condition maintaining the temperature of 22±2° C. and the relative humidity of […] under the regularly controlled light/dark condition with an interval of 12 hours. Synthetic beta amyloid 1-42 (BACHEM) was dissolved in DMSO in order to be 250 μM solution and diluted with PBS to 10 nM and aggregated at 37° C. for four days (Passive Avoidance test) or six days (Y maze test). Aggregated beta amyloid 1-42 was administrated into the mice according to the procedure disclosed in the literature (Lausen & Belknap, J. Pharmacol. Methods, 16 pp 355-357, 1986). 50 μl of aggregated beta amyloid 1-42 was administrated into the 2.4 mm depth of bregma region with 50 μl of Hamilton micro-syringe equipped with 26-gauge needle. The behavior tests were divided into Y maze test and PA (passive avoidance) test after the beta amyloid administration. […] The entering order of mice in the pathway was observed and the entering latency time was determined when four limbs was entered within the pathway. To determine the spatial memory, the determined spontaneous alteration behavior was calculated by following empirical formula 1 and the actual alteration was assigned to one time at the time that mice was entered three pathways continuously. […]

mouse brain = experiment: Brain staining of AD acute model (Cresyl violet, ChAT, GFAP); format: in vivo
Method: At the end of the experiment, the brain of animals was delivered and kept in 10% formalin solution to staining. At the end of behavior test, the mouse brain was delivered, kept in 10% formalin solution for 24 hours and transferred to 30% sucrose solution. After fixing the brain, the brain was performed to coronal section with a width of 40 μm using by cryostat. The sliced brain was performed to Cresyl violet staining to confirm the injury of brain neuronal cell, to ChAT staining to confirm the injury of cholinergic neuron and to GFAP staining to confirm the activation of astrocytes. After the tissue was placed on gelatin-coated slide to stain with Cresyl violet, the tissue was performed to dehydration using ethanol. The tissue was incubated for about 3 minutes and dipped into 0.5% Cresyl Violet solution for 30 mins. After the solution was performed to […] with ethanol, the slice was dipped into xylene for 3 minutes. The dried tissue was fixed with Canada balsam mounting medium. In the washing process between all the antibody incubation, PBST was used to washing tissues. To reduce the activity of endogenous peroxidase activity, the tissue was pretreated with 0.5% H2O2 and then treated with 5% FBS at room temperature for 1 hour to remove non-specific binding. The tissue was incubated at 4° C. for overnight using by mouse anti-GFAP (1:200) monoclonal antibody and goat-anti-ChAT (1:200) polyclonal antibody. A horse radish peroxidase-conjugated anti-mouse IgG and anti-goat IgG secondary antibody (1:600) was incubated at room temperature for 1 hour and detected by DAB kit after the incubation.

[4] = system: mice administered aggregated beta amyloid 1-42; experiment: AD acute model, passive avoidance test; format: in vivo, mouse; details: oral, mice given beta amyloid, p<0.05
Method: For passive avoidance test, male ICR mouse weighing 25 g purchased from Samtaco Co. was bred with five mice per cage and the cage was kept with following condition maintaining the temperature of 22±2° C. and the relative humidity of […] under the regularly controlled light/dark condition with an interval of 12 hours.
Synthetic beta amyloid 1-42 (BACHEM) was dissolved in DMSO in order to be 250 μM solution and diluted with PBS to 10 nM and aggregated at 37° C. for four days (Passive Avoidance test) or six days (Y maze test).
Aggregated beta amyloid 1-42 was administrated into the mice according to the procedure disclosed in the literature (Lausen & Belknap, J. Pharmacol. Methods, 16 pp 355-357, 1986).
50 μl of aggregated beta amyloid 1-42 was administrated into the 2.4 mm depth of bregma region with 50 μl of Hamilton micro-syringe equipped with 26-gauge needle. The behavior tests were divided into Y maze test and PA (passive avoidance) test after the beta amyloid administration. Y maze test was performed 2 days after the administration and PA test was 3 days after the administration. Each test was done with more than 10 mice. […]
At 24 hours after the training session, the identical experiment was performed again with mouse to measure the latency time staying at the light chamber. […] Latency to enter the dark compartment from the light compartment was measured as a step through latency. […]

CC(C)C1=Cc2ccc3c(c2C(=O)C1=O)C=CCC3(C)C [1,2-Didehydromiltirone, 1,2-didehydromiltirone]
inhibitory effect on the toxicity of beta amyloid [1]: did not inhibit

CC(C)C1=Cc2ccc3c(c2C(=O)C1=O)CCCC3(C)C [Miltirone]
inhibitory effect on the toxicity of beta amyloid [1]: did not inhibit

Cc1cccc2c3c(ccc12)C1=C(C(=O)C3=O)[C@@H](C)CO1 [dihydrotanshinone I]
inhibitory effect on the toxicity of beta amyloid [1]: did not show any inhibitory effect

Cc1coc2c1C(=O)C(=O)c1c-2ccc2c1CCCC2(C)C [tanshinone IIA]
toxicity at oral administration test [2]: no toxicity
recovery of memory learning disorder (spontaneous alteration, Y maze) [3]: recovered
injury of cholinergic neuron caused by beta amyloid (mouse brain; ChAT staining): recovered the injury of cholinergic neuron
injury of memory learning correlated with hippocampus injury (brain staining) (mouse brain; Cresyl violet staining, mouse brain after beta amyloid): significantly recovered
activity of astrocyte caused by beta amyloid (mouse brain; GFAP staining): reduced the increased activity of astrocyte
latency time (step through latency, passive avoidance) [4]: significantly increased
inhibitory effect on the toxicity of beta amyloid [1]: mere inhibitory effect

Cc1coc2c1C(=O)C(=O)c1c-2ccc2c(C)cccc12 [tanshinone I]
inhibitory effect on the toxicity of beta amyloid [1]: did not show any inhibitory effect
